Laboratory results from patent EP0090353A1, “2-Pyridone derivatives, method for their preparation and pharmaceutical compositions containing them” (priority 1982, dated 1983).

What was measured:
Adjuvans Arthritis = test: Adjuvant arthritis (method of Pearson); format: in vivo, männliche Ratten eines Wistar-Lewis-Stammes; conditions: Rattus norvegicus; male Wistar-Lewis rats, oral daily from day 1 to day 5; reduction of paw volume increase vs control; ED50 read graphically from dose-response curve
Description: 1. Adjuvans Arthritis Die Untersuchungen wurden nach der Methode von Pearson durchgeführt (Arthrit. Rheum. 2, 440 (1959)). […] Die zu […] Verbindungen wurden täglich vom 1. bis zum 5. Versuchstag oral appliziert. Tiere einer Kontrollgruppe erhielten nur das Lösungsmittel. Pro Dosierung und in der Kontrollgruppe wurden jeweils 8 […] unbehandelten Kontrollgruppe. Die ED50-Werte wurden graphisch aus […].

[1] = Gastric ulcerogenic effect; conditions: rat, stomach, po
Description: Gastrale ulzerogene Wirkung
(§2) Die Untersuchungen erfolgten an jeweils 10 männlichen Sprague-Dawley Ratten im Körpergewicht von 200-300 g. 48 Stunden vor Applikation der zu vergleichenden Verbindungen bis zum Töten der Tiere wurde das Futter entzogen, bei freiem Zugang zum Trinkwasser. Die Ratten wurden 24 Stunden nach oraler Gabe getötet, der Magen entnommen, unter fließendem Wasser gereinigt und auf Schleimhautläsionen inspiziert. Als Ulzera galten alle makroskopisch sichtbaren Läsionen. Bestimmt wurde der Anteil der Tiere mit Ulzera pro dosi und die UD50 nach Lichtfield und Wilcoxon (J. Pharmacol. exp. Ther. 96, 99 (1949)).

gastrale Ulcera = test: Gastric ulcerogenic effect; conditions: ratio of UD50 (gastric ulcers) to ED50 (adjuvant arthritis), rat
Description: Gastrale ulzerogene Wirkung
as §2

in vivo = conditions: rat, in vivo; Sprague-Dawley rats, 6 animals per dose; Litchfield-Wilcoxon; read-out: LD50 akute Toxizität
Description: (§1) Die Bestimmung der akuten Toxizitäten erfolgten in Standardmethoden an Ratten des Sprague-Dawley-Stammes. Pro Dosierung wurden 6 Tiere verwendet. Die LD50-Werte wurden nach Lichtfield und Wilcoxon bestimmt. [drawing 8]

[2] = test system: Ratten des Sprague-Dawley-Stammes; test: in vivo; conditions: ratio of LD50 (acute toxicity) to ED50 (adjuvant arthritis), rat
Description: as §1

| SMILES | ED50 (Adjuvans Arthritis) | TD50 at 24 h [1] | TI(UD50/ED50) therapeutischer Index (gastrale Ulcera) | LD50 (in vivo) | TI (LD50 /ED50) therapeutischer Index [2] |
| --- | --- | --- | --- | --- | --- |
| CC(Oc1cccc(-c2ccccc2)n1)C(=O)O (racemic) [Beisp. 4, DL-2-(6-Phenylpyridin-2-oxy)-propansäure] | 20 mg/kg | 175 mg/kg | 9 |  |  |
| CC(CO)Oc1cccc(-c2ccccc2)n1 (racemic) [Beisp. 9, DL-2-(6-Phenylpyridin-2-oxy)-propanol] | 20 mg/kg | 220 mg/kg | 11 | 1000 mg/kg | 50 |
| CCOC(=O)[C@@H](C)Oc1cccc(-c2ccccc2)n1 [Beisp. 7, D(+)-2-(6-Phenylpyridin-2-oxy)-propansäureethylester] | 15 mg/kg | 125 mg/kg | 8 |  |  |
| COc1ccc2cc([C@H](C)C(=O)O)ccc2c1 [Naproxen, reference compound] | 15 mg/kg |  |  |  |  |
| CC1=C(CC(=O)O)c2cc(F)ccc2/C1=C\c1ccc([S+](C)[O-])cc1 (stereo not drawn) [Sulindac, reference compound] | 13 mg/kg | 26 mg/kg | 2 |  |  |
